In publication PMC7761018, “Green Tea Catechins Induce Inhibition of PTP1B Phosphatase in Breast Cancer Cells with Potent Anti-Cancer Properties: In Vitro Assay, Molecular Docking, and Dynamics Studies” (Antioxidants, 2020):

Molecular target: T1, PTP1B (Homo sapiens, UniProt P18031)
T1 construct: gene PTPN1
T1 sequence (P18031 1-435): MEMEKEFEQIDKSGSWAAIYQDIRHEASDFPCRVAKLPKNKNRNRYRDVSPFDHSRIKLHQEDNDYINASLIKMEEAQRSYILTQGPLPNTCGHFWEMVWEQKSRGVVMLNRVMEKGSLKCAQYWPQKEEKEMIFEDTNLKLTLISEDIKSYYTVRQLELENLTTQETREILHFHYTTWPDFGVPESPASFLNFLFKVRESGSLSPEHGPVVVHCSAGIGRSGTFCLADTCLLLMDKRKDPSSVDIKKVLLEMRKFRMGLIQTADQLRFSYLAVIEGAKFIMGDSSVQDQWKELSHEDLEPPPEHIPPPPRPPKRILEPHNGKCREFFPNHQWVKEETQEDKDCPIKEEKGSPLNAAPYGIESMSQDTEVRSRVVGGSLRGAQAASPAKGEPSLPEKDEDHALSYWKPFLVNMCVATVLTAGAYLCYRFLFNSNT
Assay: recombinant PTP1B pNPP hydrolysis assay, absorbance at […] nm
Type: biochemical

Structure (SMILES): Oc1cc(O)c2c(c1)O[C@H](c1cc(O)c(O)c(O)c1)[C@H](O)C2 [EGC, epigallocatechin]
- IC50: 104 ± 10.1 µM
